From patent US10544143B2, “4-azaindole compounds” (BRISTOL-MYERS SQUIBB COMPANY, priority 2017, dated 2020)
Read-outs that look alike come from different tables or passages of the source.

Key:
[1] = biological target: human TLR7 (Homo sapiens (Human), UniProt Q9NYK1); test: TLR7 inhibition reporter assay (HEK-Blue SEAP); type: cell-based
[2] = biological target: human TLR8 (Homo sapiens (Human), UniProt Q9NR97); test: TLR8 inhibition reporter assay (HEK-Blue SEAP); conditions: read-out: TLR8 IC50;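 also: SEAP driven by IFN-β minimal promoter carrying NF-κB and AP-1 sites, compounds dosed 0.05 nM to 50 µM for 22 h, inhibition scaled between agonist-plus-DMSO and reference-inhibitor wells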
human TLR8, sequence (Q9NR97 27-1041): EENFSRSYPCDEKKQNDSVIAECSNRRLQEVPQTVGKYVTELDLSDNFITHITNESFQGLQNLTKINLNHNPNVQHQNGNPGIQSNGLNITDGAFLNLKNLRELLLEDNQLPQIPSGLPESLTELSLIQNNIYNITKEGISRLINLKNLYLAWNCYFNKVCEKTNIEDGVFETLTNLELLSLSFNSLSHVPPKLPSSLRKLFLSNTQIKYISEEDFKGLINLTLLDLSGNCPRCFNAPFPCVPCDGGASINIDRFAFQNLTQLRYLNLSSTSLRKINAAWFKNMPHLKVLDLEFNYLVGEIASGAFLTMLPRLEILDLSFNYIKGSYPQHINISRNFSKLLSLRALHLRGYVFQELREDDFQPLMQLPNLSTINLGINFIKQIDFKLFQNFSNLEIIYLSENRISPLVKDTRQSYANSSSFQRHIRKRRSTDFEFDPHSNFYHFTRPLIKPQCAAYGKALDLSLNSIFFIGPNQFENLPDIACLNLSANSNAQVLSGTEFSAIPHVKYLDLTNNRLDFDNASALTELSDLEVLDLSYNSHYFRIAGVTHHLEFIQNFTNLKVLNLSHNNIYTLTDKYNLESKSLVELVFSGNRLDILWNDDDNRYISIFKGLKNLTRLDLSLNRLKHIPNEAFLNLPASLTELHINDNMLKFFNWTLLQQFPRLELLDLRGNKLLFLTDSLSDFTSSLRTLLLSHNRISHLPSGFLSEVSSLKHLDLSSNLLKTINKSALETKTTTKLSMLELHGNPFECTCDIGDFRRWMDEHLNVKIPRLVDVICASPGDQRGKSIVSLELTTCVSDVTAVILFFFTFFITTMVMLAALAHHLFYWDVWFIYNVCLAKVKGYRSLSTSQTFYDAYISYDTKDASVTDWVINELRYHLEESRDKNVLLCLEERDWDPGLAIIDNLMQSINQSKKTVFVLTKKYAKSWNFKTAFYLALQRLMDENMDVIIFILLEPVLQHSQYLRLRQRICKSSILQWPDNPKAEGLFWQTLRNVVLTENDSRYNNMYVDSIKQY

[3] = biological target: human TLR9 (Homo sapiens (Human), UniProt Q9NR96); test: TLR9 inhibition reporter assay (HEK-Blue SEAP); conditions: read-out: TLR9 IC50;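 also: SEAP driven by an IFN-β minimal promoter with NF-κB and AP-1 sites, read after 22 h, compounds dosed 0.05 nM–50 µM, inhibition scaled between agonist plus DMSO and reference-inhibitor wells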
human TLR9, sequence (Q9NR96 26-1032): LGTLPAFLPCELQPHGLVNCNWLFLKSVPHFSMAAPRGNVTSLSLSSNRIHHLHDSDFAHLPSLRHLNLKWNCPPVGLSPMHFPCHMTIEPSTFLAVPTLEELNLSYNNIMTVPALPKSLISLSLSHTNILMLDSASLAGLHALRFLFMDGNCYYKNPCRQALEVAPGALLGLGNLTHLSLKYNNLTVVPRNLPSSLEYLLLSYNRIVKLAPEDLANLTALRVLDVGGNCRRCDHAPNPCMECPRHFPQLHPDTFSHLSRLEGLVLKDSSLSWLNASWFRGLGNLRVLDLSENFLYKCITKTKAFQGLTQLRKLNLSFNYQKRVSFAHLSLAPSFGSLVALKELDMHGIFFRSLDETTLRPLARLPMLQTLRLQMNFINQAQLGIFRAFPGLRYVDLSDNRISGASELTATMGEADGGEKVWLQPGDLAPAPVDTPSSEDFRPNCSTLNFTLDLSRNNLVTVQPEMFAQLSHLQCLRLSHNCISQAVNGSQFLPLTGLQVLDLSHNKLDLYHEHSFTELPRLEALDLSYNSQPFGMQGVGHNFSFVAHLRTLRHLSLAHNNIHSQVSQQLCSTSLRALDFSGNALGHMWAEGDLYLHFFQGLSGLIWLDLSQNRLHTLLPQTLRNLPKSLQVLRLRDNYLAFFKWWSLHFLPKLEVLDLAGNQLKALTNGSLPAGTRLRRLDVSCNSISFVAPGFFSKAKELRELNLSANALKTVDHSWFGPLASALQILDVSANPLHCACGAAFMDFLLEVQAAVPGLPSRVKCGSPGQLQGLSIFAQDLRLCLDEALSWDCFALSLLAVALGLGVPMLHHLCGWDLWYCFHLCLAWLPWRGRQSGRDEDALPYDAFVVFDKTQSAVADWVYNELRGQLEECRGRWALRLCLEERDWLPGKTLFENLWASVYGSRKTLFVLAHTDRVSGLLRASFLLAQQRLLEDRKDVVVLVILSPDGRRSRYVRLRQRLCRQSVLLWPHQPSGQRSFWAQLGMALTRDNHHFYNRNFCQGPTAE

[4] = HEK-Blue human TLR7 cells, gardiquimod 7.5 μM
[5] = HEK-Blue human TLR8 cells, R848 15.9 μM
[6] = HEK-Blue human TLR9 cells, ODN2006 5 nM
[7] = HEK-Blue cells overexpressing human TLR7, gardiquimod 7.5 μM stimulation, SEAP reporter
[8] = HEK-Blue cells overexpressing human TLR8, R848 15.9 μM stimulation, SEAP reporter
[9] = HEK-Blue cells overexpressing human TLR9, ODN2006 5 nM stimulation, SEAP reporter
[10] = HEK-Blue cells overexpressing human TLR7, SEAP reporter, gardiquimod 7.5 μM
[11] = HEK-Blue cells overexpressing human TLR8, SEAP reporter, R848 15.9 μM
[12] = HEK-Blue cells overexpressing human TLR9, SEAP reporter, ODN2006 5 nM

human TLR7, sequence (Q9NYK1 27-1049): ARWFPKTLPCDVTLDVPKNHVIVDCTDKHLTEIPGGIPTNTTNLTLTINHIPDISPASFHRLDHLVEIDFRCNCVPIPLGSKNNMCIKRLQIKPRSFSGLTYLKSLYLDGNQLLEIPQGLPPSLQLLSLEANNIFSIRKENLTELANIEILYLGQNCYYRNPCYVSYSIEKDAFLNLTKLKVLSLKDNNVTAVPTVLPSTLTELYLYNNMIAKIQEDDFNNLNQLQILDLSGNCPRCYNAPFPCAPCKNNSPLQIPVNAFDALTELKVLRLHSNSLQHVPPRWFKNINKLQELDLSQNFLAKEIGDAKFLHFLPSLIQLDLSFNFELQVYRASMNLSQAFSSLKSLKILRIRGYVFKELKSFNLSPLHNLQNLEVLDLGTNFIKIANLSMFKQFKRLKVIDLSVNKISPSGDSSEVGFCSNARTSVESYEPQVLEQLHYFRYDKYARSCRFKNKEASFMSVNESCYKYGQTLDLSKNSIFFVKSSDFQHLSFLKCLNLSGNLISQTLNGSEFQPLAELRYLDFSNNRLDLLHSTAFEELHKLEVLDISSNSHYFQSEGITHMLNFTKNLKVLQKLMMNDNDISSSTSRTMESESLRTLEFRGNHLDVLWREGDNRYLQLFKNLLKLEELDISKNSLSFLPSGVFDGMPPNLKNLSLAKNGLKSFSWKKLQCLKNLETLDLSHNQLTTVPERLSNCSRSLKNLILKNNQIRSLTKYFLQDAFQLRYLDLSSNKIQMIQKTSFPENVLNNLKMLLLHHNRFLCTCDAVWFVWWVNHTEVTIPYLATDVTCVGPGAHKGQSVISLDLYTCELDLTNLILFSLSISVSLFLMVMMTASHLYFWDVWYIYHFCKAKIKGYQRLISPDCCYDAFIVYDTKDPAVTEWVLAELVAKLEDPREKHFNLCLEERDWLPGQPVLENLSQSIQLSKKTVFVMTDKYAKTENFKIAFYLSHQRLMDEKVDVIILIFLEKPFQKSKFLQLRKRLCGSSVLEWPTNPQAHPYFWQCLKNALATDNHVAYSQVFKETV

| SMILES | IC50 [1, 4] [nM] | IC50 [2, 5] [nM] | IC50 [3, 6] [nM] | IC50 [1, 7] [nM] | IC50 [2, 8] [nM] | IC50 [3, 9] [nM] | IC50 [1, 10] [nM] | IC50 [2, 11] [nM] | IC50 [3, 12] [nM] |
| --- | --- | --- | --- | --- | --- | --- | --- | --- | --- |
| Cc1c(-c2[nH]c3ccc(N4C[C@@H](C)N(C(=O)CCN(C)C)[C@H](C)C4)nc3c2C(C)C)cn2ncnc2c1C [Example 886] | 2.8 | 1.7 | 2570 |  |  |  |  |  |  |
| COCC(C)N1CCN(c2ccc3[nH]c(-c4cc(OC)c5ncnn5c4)c(C(C)C)c3n2)CC1 (stereo not drawn) [Example 112] |  |  |  | 2.2 | 1.2 | 6010 |  |  |  |
| COc1cc(-c2[nH]c3cc(C)c(C4CCC(N5CC(F)(F)C5)CC4)nc3c2C(C)C)cn2ncnc12 (stereo not drawn) [Example 338] |  |  |  | 81 | 1170 | > 50000 |  |  |  |
| COc1cc(-c2[nH]c3ccc(OC4CN(C(C)C)C4)nc3c2C(C)C)cn2ncnc12 [Example 612, 6-(3-isopropyl-5-((1-isopropylazetidin-3-yl)oxy)-1H-pyrrolo[3,2-b]pyridin-2-yl)-8-methoxy-[1,2,4]triazolo[1,5-a]pyridine] |  |  |  |  |  |  | 13 | 56 | 3930 |
| COc1cc(-c2[nH]c3ccc(N4CCN(C5CCS(=O)(=O)CC5)CC4)nc3c2C(C)C)cn2ncnc12 [Example 133] |  |  |  | 4.3 | 1.4 | > 50000 |  |  |  |
| CCn1cc(-c2[nH]c3ccc(C4CCC(NCC(=O)N(C)C)CC4)nc3c2C(C)C)c2cccnc21 (stereo not drawn) [Example 291] |  |  |  | 2.6 | 11 | 735 |  |  |  |
| Cc1c(-c2[nH]c3ccc(C4CCC(N5CC(C(=O)N(C)C)C5)CC4)nc3c2C(C)C)cn2ncnc2c1C (stereo not drawn) [Example 1047] | 1.3 | 3.5 | 4490 |  |  |  |  |  |  |
| Cc1c(-c2[nH]c3ccc(N4C[C@H]5C[C@@H]4CN5)nc3c2C(C)C)cn2ncnc2c1C [Example 981] | 0.95 | 0.51 | 3070 |  |  |  |  |  |  |
| COc1cc(-c2[nH]c3ccc(C4CCC(N5CCC[C@H]5CO)CC4)nc3c2C(C)C)cn2ncnc12 (stereo partly drawn) [Example 173] |  |  |  | 2 | 10 | 578 |  |  |  |
| CCN(C1CCC(c2ccc3[nH]c(-c4cn5ncnc5c(C)c4C)c(C(C)C)c3n2)CC1)C1COC1 (stereo not drawn) [Example 1038] | 0.98 | 1.3 | 1910 |  |  |  |  |  |  |
| Cc1c(-c2[nH]c3ccc(N4CCN(C(=O)CN5CC6(COC6)C5)[C@@H](C)C4)nc3c2C(C)C)cn2ncnc2c1C [Example 900] | 1.1 | 1.4 | 15600 |  |  |  |  |  |  |
| Cc1c(-c2[nH]c3ccc(C4CCNCC4)nc3c2C(C)C)cn2ncnc2c1C [Example 521] |  |  |  |  |  |  | 0.62 | 1.3 | 238 |
| COc1cc(-c2[nH]c3cc(C)c(C(=O)NC4CCN(C(C)C)CC4)nc3c2C(C)C)cn2ncnc12 [Example 731] |  |  |  |  |  |  | 4.6 | 15 | 1640 |
| Cc1c(-c2[nH]c3ccc(C4CCC(NCC(=O)NC(C)(C)C)CC4)nc3c2C(C)C)cn2ncnc2c1C (stereo not drawn) [Example 489] |  |  |  |  |  |  | 20 | 20 | 6670 |
| Cc1c(-c2[nH]c3ccc(C4CNCCO4)nc3c2C(C)C)cn2ncnc2c1C (stereo not drawn) [Example 662] |  |  |  |  |  |  | 1.8 | 1 | 9030 |
| COc1cc(-c2[nH]c3cc(C)c(C4CCC(N)CC4)nc3c2C(C)C)cn2ncnc12 (stereo not drawn) [Example 323] |  |  |  | 1.1 | 31 | 1360 |  |  |  |
| COc1cc(-c2[nH]c3ccc(CCC4CN(C5COC5)C4)nc3c2C(C)C)cn2ncnc12 [Example 700] |  |  |  |  |  |  | 26 | 43 | 2330 |
| Cc1cc(-c2[nH]c3ccc(C4CNCCO4)nc3c2C(C)C)cn(C)c1=O (stereo not drawn) [Example 675] |  |  |  |  |  |  | 9.7 | 4.6 | 14500 |
| Cc1c(-c2[nH]c3cc(F)c(C4CCC(N)CC4)nc3c2C(C)C)cn2ncnc2c1C (stereo not drawn) [Example 506] |  |  |  |  |  |  | 0.41 | 0.42 | 3180 |
| Cc1c(-c2[nH]c3ccc(N4CCC(N(C)CC(=O)N(C)C)CC4)nc3c2C(C)C)cn2ncnc2c1C [Example 997] | 2.4 | 2.4 | 13600 |  |  |  |  |  |  |
| Cc1c(-c2[nH]c3ccc(C4CCC(N(C)C(C)C)CC4)nc3c2C(C)C)cn2ncnc2c1C (stereo not drawn) [Example 1048] | 4.4 | 13 | 9830 |  |  |  |  |  |  |
| COc1cc(-c2[nH]c3ccc(C4CCC(NC(C)C)CC4)nc3c2C(C)C)cn2ncnc12 (stereo not drawn) [Example 193] |  |  |  | 1.5 | 6 | 648 |  |  |  |
| Cc1c(-c2[nH]c3ccc(N4CCN(C(=O)CN(C)C(C)(C)C)C[C@H]4C)nc3c2C(C)C)cn2ncnc2c1C [Example 934] | 0.86 | 8.6 | 9750 |  |  |  |  |  |  |

| SMILES | IC50 [1, 4] [nM] | IC50 [2, 5] [nM] | IC50 [3, 6] [nM] | IC50 [1, 7] [nM] | IC50 [2, 8] [nM] | IC50 [3, 9] [nM] | IC50 [1, 10] [nM] | IC50 [2, 11] [nM] | IC50 [3, 12] [nM] |
| --- | --- | --- | --- | --- | --- | --- | --- | --- | --- |
| Cc1c(-c2[nH]c3ccc(N4CCN(CCCS(C)(=O)=O)C[C@H]4C)nc3c2C(C)C)cn2ncnc2c1C [Example 806] | 1.1 | 1.1 | 29400 |  |  |  |  |  |  |
| COc1cc(-c2[nH]c3ccc(N4CCN(C)CC4)nc3c2C(C)C)cn2ncnc12 [Example 91] |  |  |  | 0.68 | 0.53 | 6310 |  |  |  |
| COCCN(C)C1CCC(c2ccc3[nH]c(-c4cn5ncnc5c(C)c4C)c(C(C)C)c3n2)CC1 (stereo not drawn) [Example 389] |  |  |  | 0.45 | 1.6 | 923 |  |  |  |
| CCn1cc(-c2[nH]c3ccc(C4CCC(O)CC4)nc3c2C(C)C)c2cccnc21 (stereo not drawn) [Example 293] |  |  |  | 75 | 208 | 5640 |  |  |  |
| CC(C)c1c(-c2cn(C)c3ncccc23)[nH]c2ccc(N3CC(NC4CCOCC4)C3)nc12 [Example 33] |  |  |  | 6.5 | 1.9 | 1920 |  |  |  |
| CC(C)c1c(-c2ccc(=O)n(C)c2)[nH]c2ccc(C3CCNCC3)nc12 [Example 513] |  |  |  |  |  |  | 319 | 307 | 545 |
| COc1cc(-c2[nH]c3ccc(C4CC(NCCS(C)(=O)=O)C4)nc3c2C(C)C)cn2ncnc12 (stereo not drawn) [Example 634] |  |  |  |  |  |  | 2 | 3 | 2370 |
| Cc1c(-c2[nH]c3ccc(N4CCC(NC5COC5)C4)nc3c2C(C)C)cn2ncnc2c1C (racemic) [Example 164, 1-(2-(7,8-dimethyl-[1,2,4]triazolo[1,5-a]pyridin-6-yl)-3-isopropyl-1H-pyrrolo[3,2-b]pyridin-5-yl)-N-(oxetan-3-yl)pyrrolidin-3-amine] |  |  |  | 33 | 2 | 19800 |  |  |  |
| Cc1c(-c2[nH]c3ccc(N4CCN(C(C)C)[C@H](C)C4)nc3c2C(C)C)cn2ncnc2c1C [Example 851] | 5.9 | 2.2 | 9980 |  |  |  |  |  |  |
| COc1cc(-c2[nH]c3ccc(C4CCC(NC5COC5)CC4)nc3c2C(C)C)cn2ncnc12 (stereo not drawn) [Example 180] |  |  |  | 2.8 | 11 | 1870 |  |  |  |
| Cc1c(-c2[nH]c3ccc(C4CCC(NC5CCS(=O)(=O)CC5)CC4)nc3c2C(C)C)cn2ncnc2c1C (stereo not drawn) [Example 1043] | 2.1 | 1.6 | 1750 |  |  |  |  |  |  |
| CCCCN(CC)CC(=O)N1CCN(c2ccc3[nH]c(-c4cn5ncnc5c(C)c4C)c(C(C)C)c3n2)CC1 [Example 876] | 644 | 517 | 13300 |  |  |  |  |  |  |
| CC(C)c1c(-c2cn(CCS(C)(=O)=O)c3ncccc23)[nH]c2ccc(C3CCC(NCC4(S(C)(=O)=O)CC4)CC3)nc12 (stereo not drawn) [Example 262] |  |  |  | 170 | 19 | 354 |  |  |  |
| COc1cc(-c2[nH]c3ccc(OC4CCC(N(C)C)CC4)nc3c2C(C)C)cn2ncnc12 (stereo not drawn) [Example 614, 4-((3-isopropyl-2-(8-methoxy-[1,2,4]triazolo[1,5-a]pyridin-6-yl)-1H-pyrrolo[3,2-b]pyridin-5-yl)oxy)-N,N-dimethylcyclohexan-1-amine] |  |  |  |  |  |  | 1.9 | 13 | 1010 |
| Cc1c(-c2[nH]c3ccc(N4CC5(CCNCC5)C4)nc3c2C(C)C)cn2ncnc2c1C [Example 43] |  |  |  | 2 | 7.8 | 560 |  |  |  |
| Cc1c(-c2[nH]c3ccc(N4C[C@H](C)N(C(=O)CN(C)C)C[C@@H]4C)nc3c2C(C)C)cn2ncnc2c1C [Example 788] |  |  |  |  |  |  | 2.1 | 3.2 | 8300 |
| COc1cc(-c2[nH]c3ccc(N4CCN(CC5(C)COC5)CC4)nc3c2C(C)C)cn2ncnc12 [Example 102] |  |  |  | 12 | 5.1 | > 50000 |  |  |  |
| Cc1c(-c2[nH]c3ccc(CCC4CN(Cc5c[nH]nn5)C4)nc3c2C(C)C)cn2ncnc2c1C [Example 705] |  |  |  |  |  |  | 18 | 15 | 655 |
| Cc1c(-c2[nH]c3ccc(N4C[C@@H](C)N(C(=O)CN(CCO)C(C)(C)C)[C@H](C)C4)nc3c2C(C)C)cn2ncnc2c1C [Example 930] | 22 | 7.4 | 24300 |  |  |  |  |  |  |
| Cc1c(-c2[nH]c3ccc(C4CCC(N5CC6(CCS6(=O)=O)C5)CC4)nc3c2C(C)C)cn2ncnc2c1C (stereo not drawn) [Example 1076] | 1.6 | 1.8 | 10600 |  |  |  |  |  |  |
| COc1cc(-c2[nH]c3ccc(C4CNCCO4)nc3c2C(C)C)cn2ncnc12 (stereo not drawn) [Example 666] |  |  |  |  |  |  | 0.73 | 1.6 | 6560 |
| Cc1c(-c2[nH]c3ccc(C4CCC(N(CC#N)C5COC5)CC4)nc3c2C(C)C)cn2ncnc2c1C (stereo not drawn) [Example 441] |  |  |  |  |  |  | 0.79 | 0.63 | 1660 |
| COc1cc(-c2[nH]c3ccc(C4CN(C(=O)CN(C)C)CCO4)nc3c2C(C)C)cn2ncnc12 (stereo not drawn) [Example 668] |  |  |  |  |  |  | 1.7 | 22 | 17500 |
